# In US20230295119A1, “SUBSTITUTED PYRIDINES FOR THE TREATMENT OF INFLAMMATORY DISEASES” (GOSSAMER BIO SERVICES, INC., priority 2020, published 2023):
# pIC50: −log10 of the molar value.
# Target: human JAK2 (Homo sapiens (Human), UniProt O60674)
# Test: JAK2 TR-FRET kinase assay
# Type: biochemical
# Settings: JAK2 0.025 nM
# Chain of human JAK2 (O60674 whole entry): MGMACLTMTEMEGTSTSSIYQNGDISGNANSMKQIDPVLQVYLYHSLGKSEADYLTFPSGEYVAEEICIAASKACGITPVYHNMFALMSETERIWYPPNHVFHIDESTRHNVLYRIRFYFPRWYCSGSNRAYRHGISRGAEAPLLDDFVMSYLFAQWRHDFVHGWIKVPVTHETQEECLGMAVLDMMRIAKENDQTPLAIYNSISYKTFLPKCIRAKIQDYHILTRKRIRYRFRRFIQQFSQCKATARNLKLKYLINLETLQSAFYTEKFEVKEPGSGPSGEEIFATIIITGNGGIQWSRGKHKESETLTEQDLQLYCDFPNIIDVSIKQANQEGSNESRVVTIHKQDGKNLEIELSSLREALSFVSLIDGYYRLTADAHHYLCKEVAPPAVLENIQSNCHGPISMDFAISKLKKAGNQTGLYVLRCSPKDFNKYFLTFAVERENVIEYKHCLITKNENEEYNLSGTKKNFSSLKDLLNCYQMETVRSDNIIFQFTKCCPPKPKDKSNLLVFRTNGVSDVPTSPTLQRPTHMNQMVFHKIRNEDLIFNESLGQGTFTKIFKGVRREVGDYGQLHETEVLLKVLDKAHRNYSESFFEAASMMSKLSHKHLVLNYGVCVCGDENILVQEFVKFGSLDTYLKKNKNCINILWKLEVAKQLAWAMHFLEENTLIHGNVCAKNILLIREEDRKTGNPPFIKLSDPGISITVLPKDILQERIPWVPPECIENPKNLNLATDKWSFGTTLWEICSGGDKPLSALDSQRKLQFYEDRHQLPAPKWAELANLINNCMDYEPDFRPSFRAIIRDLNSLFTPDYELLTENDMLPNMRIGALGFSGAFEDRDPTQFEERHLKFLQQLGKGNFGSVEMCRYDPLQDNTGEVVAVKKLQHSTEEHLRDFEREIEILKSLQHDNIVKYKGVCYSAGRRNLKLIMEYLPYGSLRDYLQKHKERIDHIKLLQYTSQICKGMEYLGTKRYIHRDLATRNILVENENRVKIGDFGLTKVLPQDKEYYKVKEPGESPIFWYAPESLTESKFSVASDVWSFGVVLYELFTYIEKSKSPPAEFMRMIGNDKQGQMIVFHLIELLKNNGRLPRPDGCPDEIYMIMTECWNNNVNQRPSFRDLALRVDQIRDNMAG
row,Compound,pIC50
1,CCC(=O)c1cnc(Nc2cc(CN)ncn2)cc1Nc1cccc(-c2ncn(C)n2)c1OC [Compound 9LLLL],≤ 6.30
2,CCC(=O)c1cnc(Nc2cc(CNC)ncn2)cc1Nc1cccc(-c2ncn(C)n2)c1OC [Compound 9MMMM],≤ 6.30
3,CCC(=O)c1cnc(Nc2ccc(C(C)(C)NC)nn2)cc1Nc1cccc(-c2ncn(C)n2)c1OC [Compound 9MMM],≤ 6.30
4,CCC(=O)c1cnc(Nc2cc(CN3CCCC3)ncn2)cc1Nc1cccc(-c2ncn(C)n2)c1OC [Compound 9NNNN],≤ 6.30
5,CCC(=O)c1cnc(Nc2ccc(C(C)(C)N(C)C)nn2)cc1Nc1cccc(-c2ncn(C)n2)c1OC [Compound 9NNN],≤ 6.30
6,CCC(=O)c1cnc(Nc2cc(C(C)N)ncn2)cc1Nc1cccc(-c2ncn(C)n2)c1OC (centres unmarked) [Compound 9OOOO],≤ 6.30
7,CCC(=O)c1cnc(Nc2ccc(CN3CCCC3)nn2)cc1Nc1cccc(-c2ncn(C)n2)c1OC [Compound 9OOO],≤ 6.30

# Results, then the compound that gave them:
row,pIC50,Compound
1,≤ 6.30,CCC(=O)c1cnc(Nc2ccc([C@H](C)N3CC[C@H](O)C3)cn2)cc1Nc1cccc(-c2ncn(C)n2)c1OC [Compound 9LL]
2,≤ 6.30,CCC(=O)c1cnc(Nc2ccc([C@@H](C)N3CC[C@H](O)C3)cn2)cc1Nc1cccc(-c2ncn(C)n2)c1OC [Compound 9MM]
3,≤ 6.30,CCC(=O)c1cnc(Nc2ccc([C@H](C)N3CC[C@@H](O)C3)cn2)cc1Nc1cccc(-c2ncn(C)n2)c1OC [Compound 9NN]
4,≤ 6.30,CCC(=O)c1cnc(Nc2ccc(C(C)(C)N(C)C)cn2)cc1Nc1cccc(-c2ncn(C)n2)c1OC [Compound 9N]

# Target: human JAK1 (Homo sapiens (Human), UniProt P23458)
# Sequence (P23458 whole entry): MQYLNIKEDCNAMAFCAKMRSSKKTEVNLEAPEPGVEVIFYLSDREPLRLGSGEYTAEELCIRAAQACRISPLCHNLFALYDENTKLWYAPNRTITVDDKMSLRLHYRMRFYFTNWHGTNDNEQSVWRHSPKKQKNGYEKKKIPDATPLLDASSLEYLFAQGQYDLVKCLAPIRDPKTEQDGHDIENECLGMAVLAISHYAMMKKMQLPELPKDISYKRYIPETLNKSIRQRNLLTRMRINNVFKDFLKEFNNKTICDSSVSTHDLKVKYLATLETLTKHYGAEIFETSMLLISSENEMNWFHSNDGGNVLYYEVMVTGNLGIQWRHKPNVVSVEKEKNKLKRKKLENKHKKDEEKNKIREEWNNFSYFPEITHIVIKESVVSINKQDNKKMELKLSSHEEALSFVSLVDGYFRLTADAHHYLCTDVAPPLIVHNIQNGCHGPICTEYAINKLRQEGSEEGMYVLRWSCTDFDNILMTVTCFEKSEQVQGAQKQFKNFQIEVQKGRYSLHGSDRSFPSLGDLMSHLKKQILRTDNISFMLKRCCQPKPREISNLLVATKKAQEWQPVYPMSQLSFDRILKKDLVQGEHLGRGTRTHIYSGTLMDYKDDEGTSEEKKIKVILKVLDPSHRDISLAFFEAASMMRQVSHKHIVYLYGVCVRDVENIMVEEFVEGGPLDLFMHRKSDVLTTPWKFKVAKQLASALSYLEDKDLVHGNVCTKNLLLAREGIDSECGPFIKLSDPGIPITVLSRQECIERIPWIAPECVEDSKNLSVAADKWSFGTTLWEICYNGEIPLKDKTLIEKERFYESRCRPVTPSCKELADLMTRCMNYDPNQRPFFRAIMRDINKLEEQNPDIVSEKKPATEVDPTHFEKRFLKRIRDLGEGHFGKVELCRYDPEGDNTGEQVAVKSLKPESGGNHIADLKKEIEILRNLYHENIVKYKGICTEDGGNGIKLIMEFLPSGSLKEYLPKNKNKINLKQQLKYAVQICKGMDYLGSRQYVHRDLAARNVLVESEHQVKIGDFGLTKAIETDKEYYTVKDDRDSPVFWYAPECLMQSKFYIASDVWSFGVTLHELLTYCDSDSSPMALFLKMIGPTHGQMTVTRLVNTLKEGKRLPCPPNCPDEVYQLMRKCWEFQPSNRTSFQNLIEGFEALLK
# Test: JAK1 TR-FRET kinase assay
# Type: biochemical
# Settings: TR-FRET, JAK1 2.5 nM
row,Compound,pIC50
1,CCC(=O)c1cnc(Nc2cc(CN)ncn2)cc1Nc1cccc(-c2ncn(C)n2)c1OC [Compound 9LLLL],≤ 6.30
2,CCC(=O)c1cnc(Nc2cc(CNC)ncn2)cc1Nc1cccc(-c2ncn(C)n2)c1OC [Compound 9MMMM],≤ 6.30
3,CCC(=O)c1cnc(Nc2ccc(C(C)(C)NC)nn2)cc1Nc1cccc(-c2ncn(C)n2)c1OC [Compound 9MMM],≤ 6.30
4,CCC(=O)c1cnc(Nc2cc(CN3CCCC3)ncn2)cc1Nc1cccc(-c2ncn(C)n2)c1OC [Compound 9NNNN],≤ 6.30
5,CCC(=O)c1cnc(Nc2ccc(C(C)(C)N(C)C)nn2)cc1Nc1cccc(-c2ncn(C)n2)c1OC [Compound 9NNN],≤ 6.30
6,CCC(=O)c1cnc(Nc2cc(C(C)N)ncn2)cc1Nc1cccc(-c2ncn(C)n2)c1OC (centres unmarked) [Compound 9OOOO],≤ 6.30
7,CCC(=O)c1cnc(Nc2ccc(CN3CCCC3)nn2)cc1Nc1cccc(-c2ncn(C)n2)c1OC [Compound 9OOO],≤ 6.30

# Results, then the compound that gave them:
row,pIC50,Compound
1,≤ 6.30,CCC(=O)c1cnc(Nc2ccc([C@H](C)N3CC[C@H](O)C3)cn2)cc1Nc1cccc(-c2ncn(C)n2)c1OC [Compound 9LL]
2,≤ 6.30,CCC(=O)c1cnc(Nc2ccc([C@@H](C)N3CC[C@H](O)C3)cn2)cc1Nc1cccc(-c2ncn(C)n2)c1OC [Compound 9MM]
3,≤ 6.30,CCC(=O)c1cnc(Nc2ccc([C@H](C)N3CC[C@@H](O)C3)cn2)cc1Nc1cccc(-c2ncn(C)n2)c1OC [Compound 9NN]
4,≤ 6.30,CCC(=O)c1cnc(Nc2ccc(C(C)(C)N(C)C)cn2)cc1Nc1cccc(-c2ncn(C)n2)c1OC [Compound 9N]

# Target: human JAK3 (Homo sapiens (Human), UniProt P52333)
# Sequence (P52333 whole entry): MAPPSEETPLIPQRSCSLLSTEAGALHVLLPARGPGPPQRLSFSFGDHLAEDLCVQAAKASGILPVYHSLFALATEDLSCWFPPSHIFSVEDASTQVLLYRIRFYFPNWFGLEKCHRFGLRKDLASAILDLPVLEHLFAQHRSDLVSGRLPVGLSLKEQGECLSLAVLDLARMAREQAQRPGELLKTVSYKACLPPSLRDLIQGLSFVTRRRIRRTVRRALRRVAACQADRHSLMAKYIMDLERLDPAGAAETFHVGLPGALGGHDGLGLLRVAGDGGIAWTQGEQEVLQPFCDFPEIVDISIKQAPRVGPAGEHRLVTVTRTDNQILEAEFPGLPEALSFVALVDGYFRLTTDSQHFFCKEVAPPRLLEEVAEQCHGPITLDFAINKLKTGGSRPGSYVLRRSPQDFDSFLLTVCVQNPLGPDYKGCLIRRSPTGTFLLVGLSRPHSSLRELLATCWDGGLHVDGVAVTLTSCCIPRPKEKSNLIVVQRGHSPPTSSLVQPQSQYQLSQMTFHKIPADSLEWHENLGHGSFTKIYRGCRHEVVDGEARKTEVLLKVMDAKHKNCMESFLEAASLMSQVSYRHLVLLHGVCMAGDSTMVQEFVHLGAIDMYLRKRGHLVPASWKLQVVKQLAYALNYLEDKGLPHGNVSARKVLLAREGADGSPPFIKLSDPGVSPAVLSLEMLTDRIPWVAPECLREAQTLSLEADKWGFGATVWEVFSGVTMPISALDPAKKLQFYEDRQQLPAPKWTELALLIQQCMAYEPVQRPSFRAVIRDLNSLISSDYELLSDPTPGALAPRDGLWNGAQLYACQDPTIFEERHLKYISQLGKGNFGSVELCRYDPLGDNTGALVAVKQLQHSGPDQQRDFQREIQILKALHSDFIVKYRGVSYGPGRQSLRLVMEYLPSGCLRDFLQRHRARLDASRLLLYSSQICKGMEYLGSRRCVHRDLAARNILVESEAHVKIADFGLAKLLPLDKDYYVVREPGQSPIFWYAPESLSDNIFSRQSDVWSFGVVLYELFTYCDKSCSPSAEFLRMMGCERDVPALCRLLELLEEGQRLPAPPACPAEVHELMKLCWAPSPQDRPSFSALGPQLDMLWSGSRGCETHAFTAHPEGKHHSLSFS
# Test: JAK3 TR-FRET kinase assay
# Type: biochemical
# Settings: JAK3 0.0125 nM
row,Compound,pIC50
1,CCC(=O)c1cnc(Nc2cc(CN)ncn2)cc1Nc1cccc(-c2ncn(C)n2)c1OC [Compound 9LLLL],≤ 6.30
2,CCC(=O)c1cnc(Nc2cc(CNC)ncn2)cc1Nc1cccc(-c2ncn(C)n2)c1OC [Compound 9MMMM],≤ 6.30
3,CCC(=O)c1cnc(Nc2ccc(C(C)(C)NC)nn2)cc1Nc1cccc(-c2ncn(C)n2)c1OC [Compound 9MMM],≤ 6.30
4,CCC(=O)c1cnc(Nc2cc(CN3CCCC3)ncn2)cc1Nc1cccc(-c2ncn(C)n2)c1OC [Compound 9NNNN],≤ 6.30
5,CCC(=O)c1cnc(Nc2ccc(C(C)(C)N(C)C)nn2)cc1Nc1cccc(-c2ncn(C)n2)c1OC [Compound 9NNN],≤ 6.30
6,CCC(=O)c1cnc(Nc2cc(C(C)N)ncn2)cc1Nc1cccc(-c2ncn(C)n2)c1OC (centres unmarked) [Compound 9OOOO],≤ 6.30
7,CCC(=O)c1cnc(Nc2ccc(CN3CCCC3)nn2)cc1Nc1cccc(-c2ncn(C)n2)c1OC [Compound 9OOO],≤ 6.30

# Second part, the compound after the results:
row,pIC50,Compound
1,6.30 to 7.30,CCC(=O)c1cnc(Nc2ccc([C@H](C)N3CC[C@H](O)C3)cn2)cc1Nc1cccc(-c2ncn(C)n2)c1OC [Compound 9LL]
2,≤ 6.30,CCC(=O)c1cnc(Nc2ccc([C@@H](C)N3CC[C@H](O)C3)cn2)cc1Nc1cccc(-c2ncn(C)n2)c1OC [Compound 9MM]
3,≤ 6.30,CCC(=O)c1cnc(Nc2ccc([C@H](C)N3CC[C@@H](O)C3)cn2)cc1Nc1cccc(-c2ncn(C)n2)c1OC [Compound 9NN]
4,≤ 6.30,CCC(=O)c1cnc(Nc2ccc(C(C)(C)N(C)C)cn2)cc1Nc1cccc(-c2ncn(C)n2)c1OC [Compound 9N]

# Target: TYK2 JH2 domain (Homo sapiens (Human), UniProt P29597)
# Sequence (P29597 589-875): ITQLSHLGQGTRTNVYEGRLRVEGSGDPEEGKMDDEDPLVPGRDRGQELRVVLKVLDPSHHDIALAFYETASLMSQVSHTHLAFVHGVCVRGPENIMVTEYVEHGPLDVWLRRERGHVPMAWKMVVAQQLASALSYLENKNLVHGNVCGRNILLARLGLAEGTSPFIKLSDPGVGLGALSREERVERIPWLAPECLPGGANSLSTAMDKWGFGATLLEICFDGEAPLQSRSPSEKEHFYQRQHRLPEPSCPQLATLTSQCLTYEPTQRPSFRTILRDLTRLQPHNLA
# Test: TYK2 JH2 NanoBRET assay
# Type: binding
# Settings: Table 20, read-out: TYK2 IC50
# Summary of the method: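 Tracer displacement measured by BRET ratio (acceptor over donor) in live HEK293T cells transfected with a NanoLuc-tagged TYK2 JH2 construct; cells co-exposed to test compound and 0.5 µM final K10 tracer for 2 h before substrate/extracellular inhibitor addition.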
row,Compound,pIC50
1,CCC(=O)c1cnc(Nc2cc(CN)ncn2)cc1Nc1cccc(-c2ncn(C)n2)c1OC [Compound 9LLLL],> 8.30
2,CCC(=O)c1cnc(Nc2cc(CNC)ncn2)cc1Nc1cccc(-c2ncn(C)n2)c1OC [Compound 9MMMM],7.30 to 8.30
3,CCC(=O)c1cnc(Nc2ccc(C(C)(C)NC)nn2)cc1Nc1cccc(-c2ncn(C)n2)c1OC [Compound 9MMM],7.30 to 8.30
4,CCC(=O)c1cnc(Nc2cc(CN3CCCC3)ncn2)cc1Nc1cccc(-c2ncn(C)n2)c1OC [Compound 9NNNN],> 8.30
5,CCC(=O)c1cnc(Nc2ccc(C(C)(C)N(C)C)nn2)cc1Nc1cccc(-c2ncn(C)n2)c1OC [Compound 9NNN],7.30 to 8.30
6,CCC(=O)c1cnc(Nc2cc(C(C)N)ncn2)cc1Nc1cccc(-c2ncn(C)n2)c1OC (centres unmarked) [Compound 9OOOO],> 8.30
7,CCC(=O)c1cnc(Nc2ccc(CN3CCCC3)nn2)cc1Nc1cccc(-c2ncn(C)n2)c1OC [Compound 9OOO],7.30 to 8.30

# Continued, values first:
row,pIC50,Compound
1,> 8.30,CCC(=O)c1cnc(Nc2ccc([C@H](C)N3CC[C@H](O)C3)cn2)cc1Nc1cccc(-c2ncn(C)n2)c1OC [Compound 9LL]
2,> 8.30,CCC(=O)c1cnc(Nc2ccc([C@@H](C)N3CC[C@H](O)C3)cn2)cc1Nc1cccc(-c2ncn(C)n2)c1OC [Compound 9MM]
3,> 8.30,CCC(=O)c1cnc(Nc2ccc([C@H](C)N3CC[C@@H](O)C3)cn2)cc1Nc1cccc(-c2ncn(C)n2)c1OC [Compound 9NN]
4,> 8.30,CCC(=O)c1cnc(Nc2ccc(C(C)(C)N(C)C)cn2)cc1Nc1cccc(-c2ncn(C)n2)c1OC [Compound 9N]
